{
  "source": "paper PMC9585581",
  "about": "“Developing Photoaffinity Probes for Dopamine Receptor D2 to Determine Targets of Parkinson’s Disease Drugs” (ACS Chemical Neuroscience, 2022)",
  "tested_on": "rat whole brain proteins",
  "assay": "Rat whole brain photo-cross-linking, biotin-streptavidin pulldown and LC/MS proteomics (interactome)",
  "type": "binding, Sprague Dawley rat",
  "conditions": "probe 50 μM; rat whole brain minus olfactory bulb",
  "source_text": "Whole brain assays were designed to assay the binding partners of 5 and 7, as well as a control for the inherent binding of the benzophenone cross-linker using molecule 16 (Figure 7). […] We chose this methodology to maximize the amount of unique hits we were likely to record. A drawback to this assay, however, is that GPCRs need highly specific extraction/purification conditions to be detected by LC-MS (or other protein detection methodologies) at the end point. Thus, by biasing our assay toward a “wide lens” to record a picture of diverse interactions, we missed the specific focus necessary to observe DRD2 and structurally related GPCRs, and we were unable to directly observe DRD2 in the proteomic analysis.\nTo perform the assay, the whole brain minus the olfactory bulb from an adult female Sprague Dawley rat was homogenized and treated with probes or linker control 16 at a 50 μM concentration and photo-cross-linked. A streptavidin resin was used to deplete endogenous biotin and then clicked with azido biotin, followed by streptavidin pulldown. The streptavidin beads were processed by tryptic digest, followed by LC/MS proteomic analysis. […]\nTo prepare the homogenate, adult rat brain tissue was microdissected and the olfactory bulb was discarded and sliced into 1 mm pieces. […] The total protein concentration was determined via BCA assay (Pierce) and adjusted to 6 mg/mL. […]",
  "note": "“Also recorded” adds a separate entry of the source.",
  "data": [
    {"smiles": "C#CCOc1ccc(C(=O)c2ccc(CNCCc3cccc4c3CC(=O)N4)cc2)cc1", "note": "[Compound 5, 4-(2-((4-(4-(Prop-2-yn-1-yloxy)benzoyl)benzyl)amino)ethyl)indolin-2-one]", "values": [
      {"measurement": "protein hits of the pulldown (in words)", "result": "muscarinic acetylcholine receptor M1 and CB1 cannabinoid receptor-interacting protein 1; also recorded: bound other protein networks including the retrograde endocannabinoid signaling pathway, neuronal nitric oxide synthase, GABA receptor components, and muscarinic acetylcholine receptor M1"}
    ]},
    {"smiles": "C#CCOc1ccc(C(=O)c2ccc(CN[C@H]3CCc4nc(N)sc4C3)cc2)cc1", "note": "[Compound 7, (S)-(4-(((2-Amino-4,5,6,7-tetrahydrobenzo[d]thiazol-6-yl)amino)methyl)phenyl)(4-(prop-2-yn-1-yloxy)phenyl)methanone]", "values": [
      {"measurement": "protein hits of the pulldown (in words)", "result": "bound other protein networks including the retrograde endocannabinoid signaling pathway, neuronal nitric oxide synthase, GABA receptor components, and muscarinic acetylcholine receptor M1"}
    ]}
  ]
}
